{"source": "patent US20230085307A1", "about": "“PYRIDAZINONE COMPOUND AND HERBICIDE” (NISSAN CHEMICAL CORPORATION, priority 2019, published 2023)", "key": {"velvetleaf [1]": {"tested_on": "velvetleaf", "experiment": "Test Example 5: herbicidal effect by foliage application, plastic box (Table 20, symbol M)", "format": "in vivo, velvetleaf (Abutilon theophrasti)", "conditions": "foliage application, 320 g/ha, evaluated three weeks after application", "procedure,_shortened": "(§1)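 Post-emergence foliar test in sterilized diluvial soil. Compound applied as water-diluted emulsion at a predetermined rate to 14-day-old plants; evaluation at three weeks.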"}, "barnyard grass [2]": {"tested_on": "barnyard grass", "experiment": "Test Example 5: herbicidal effect by foliage application, plastic box (Table 20, symbol H)", "format": "in vivo, barnyard grass (Echinochloa crus-galli)", "conditions": "foliage application, 320 g/ha, evaluated three weeks after application", "procedure,_shortened": "as §1"}, "Chinese sprangletop": {"tested_on": "Chinese sprangletop", "experiment": "Test Example 3: herbicidal effect by foliage application, Wagner pot (Table 18, symbol D)", "format": "in vivo, chinese sprangletop (Leptochloa chinensis)", "conditions": "amount of applied herbicide 320 g/ha", "procedure,_shortened": "(§2)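 Plants were sown in alluvial soil held under 0.1–0.5 cm standing water and grown 14 days in a greenhouse at 25–30 °C. An emulsifiable formulation, water-diluted to the set dose, was then sprayed onto the foliage, and effects were scored three weeks later using previously defined criteria.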"}, "Japanese bulrush": {"tested_on": "Japanese bulrush", "experiment": "Test Example 1: herbicidal activity, application before weed generation under submerged conditions (Table 16, symbol B)", "format": "in vivo, Japanese bulrush (Schoenoplectus juncoides)", "conditions": "320 g/ha applied herbicide", "procedure,_shortened": "(§3)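 Alluvial soil was flooded to 4 cm depth, weed seeds were sown mixed and 2.5-leaf rice seedlings were transplanted. On sowing day, the compound's emulsion, diluted in water to a set dose, was applied to the water surface. Plants grew at 25–30 °C and were scored 0–5 after three weeks.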"}, "southern crabgrass [3]": {"tested_on": "southern crabgrass", "experiment": "Test Example 4: herbicidal effect by soil treatment (Table 19, symbol F)", "format": "in vivo, southern crabgrass (Digitaria ciliaris)", "conditions": "amount of applied herbicide 320 g/ha", "procedure,_shortened": "(§4)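 Emulsion of test compound, water-diluted to predetermined amount, sprayed on soil after sowing (seed depth ~1.5 cm, sterilized diluvial soil). Greenhouse, 25–30° C. Effect graded at three weeks post-spray.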"}, "blackgrass": {"tested_on": "blackgrass", "experiment": "Test Example 5: herbicidal effect by foliage application, plastic box (Table 20, symbol J)", "format": "in vivo, blackgrass (Alopecurus myosuroides)", "conditions": "foliage application, 320 g/ha, evaluated three weeks after application", "procedure,_shortened": "as §1"}, "chickweed [4]": {"tested_on": "chickweed", "experiment": "Test Example 4: herbicidal effect by soil treatment (Table 19, symbol P)", "format": "in vivo, common chickweed (Stellaria media)", "conditions": "amount of applied herbicide 320 g/ha", "procedure,_shortened": "as §4"}, "southern crabgrass [5]": {"tested_on": "southern crabgrass", "experiment": "Test Example 5: herbicidal effect by foliage application, plastic box (Table 20, symbol F)", "format": "in vivo, southern crabgrass (Digitaria ciliaris)", "conditions": "foliage application, 320 g/ha, evaluated three weeks after application", "procedure,_shortened": "as §1"}, "green foxtail [6]": {"tested_on": "green foxtail", "experiment": "Test Example 5: herbicidal effect by foliage application, plastic box (Table 20, symbol G)", "format": "in vivo, green foxtail (Setaria viridis)", "conditions": "foliage application, 320 g/ha, evaluated three weeks after application", "procedure,_shortened": "as §1"}, "oval-leafed pondweed": {"tested_on": "oval-leafed pondweed", "experiment": "Test Example 1: herbicidal activity, application before weed generation under submerged conditions (Table 16, symbol C)", "format": "in vivo, oval-leafed pondweed (Monochoria vaginalis)", "conditions": "320 g/ha applied herbicide", "procedure,_shortened": "as §3"}, "Italian ryegrass [7]": {"tested_on": "Italian ryegrass", "experiment": "Test Example 4: herbicidal effect by soil treatment (Table 19, symbol K)", "format": "in vivo, Italian ryegrass (Lolium multiflorum)", "conditions": "amount of applied herbicide 320 g/ha", "procedure,_shortened": "as §4"}, "late watergrass": {"tested_on": "late watergrass", "experiment": "Test Example 1: herbicidal activity, application before weed generation under submerged conditions (Table 16, symbol A)", "format": "in vivo, late watergrass (Echinochloa oryzicola)", "conditions": "320 g/ha applied herbicide", "procedure,_shortened": "as §3"}, "rice flat sedge": {"tested_on": "rice flat sedge", "experiment": "Test Example 3: herbicidal effect by foliage application, Wagner pot (Table 18, symbol E)", "format": "in vivo, rice flat sedge (Cyperus iria)", "conditions": "amount of applied herbicide 320 g/ha", "procedure,_shortened": "as §2"}, "barnyard grass [8]": {"tested_on": "barnyard grass", "experiment": "Test Example 3: herbicidal effect by foliage application, Wagner pot (Table 18, symbol H)", "format": "in vivo, barnyard grass (Echinochloa crus-galli)", "conditions": "amount of applied herbicide 320 g/ha", "procedure,_shortened": "as §2"}, "wild oat [9]": {"tested_on": "wild oat", "experiment": "Test Example 5: herbicidal effect by foliage application, plastic box (Table 20, symbol I)", "format": "in vivo, wild oat (Avena fatua)", "conditions": "foliage application, 320 g/ha, evaluated three weeks after application", "procedure,_shortened": "as §1"}, "barnyard grass [10]": {"tested_on": "barnyard grass", "experiment": "Test Example 4: herbicidal effect by soil treatment (Table 19, symbol H)", "format": "in vivo, barnyard grass (Echinochloa crus-galli)", "conditions": "amount of applied herbicide 320 g/ha", "procedure,_shortened": "as §4"}, "chickweed [11]": {"tested_on": "chickweed", "experiment": "Test Example 5: herbicidal effect by foliage application, plastic box (Table 20, symbol P)", "format": "in vivo, common chickweed (Stellaria media)", "conditions": "foliage application, 320 g/ha, evaluated three weeks after application", "procedure,_shortened": "as §1"}, "lambsquarters [12]": {"tested_on": "lambsquarters", "experiment": "Test Example 4: herbicidal effect by soil treatment (Table 19, symbol O)", "format": "in vivo, lambsquarters (Chenopodium album)", "conditions": "amount of applied herbicide 320 g/ha", "procedure,_shortened": "as §4"}, "Italian ryegrass [13]": {"tested_on": "Italian ryegrass", "experiment": "Test Example 5: herbicidal effect by foliage application, plastic box (Table 20, symbol K)", "format": "in vivo, Italian ryegrass (Lolium multiflorum)", "conditions": "foliage application, 320 g/ha, evaluated three weeks after application", "procedure,_shortened": "as §1"}, "redroot pigweed [14]": {"tested_on": "redroot pigweed", "experiment": "Test Example 5: herbicidal effect by foliage application, plastic box (Table 20, symbol N)", "format": "in vivo, redroot pigweed (Amaranthus retroflexus)", "conditions": "foliage application, 320 g/ha, evaluated three weeks after application", "procedure,_shortened": "as §1"}, "persian speedwell [15]": {"tested_on": "persian speedwell", "experiment": "Test Example 5: herbicidal effect by foliage application, plastic box (Table 20, symbol R)", "format": "in vivo, Persian speedwell (Veronica persica)", "conditions": "foliage application, 320 g/ha, evaluated three weeks after application", "procedure,_shortened": "as §1"}, "velvetleaf [16]": {"tested_on": "velvetleaf", "experiment": "Test Example 4: herbicidal effect by soil treatment (Table 19, symbol M)", "format": "in vivo, velvetleaf (Abutilon theophrasti)", "conditions": "amount of applied herbicide 320 g/ha", "procedure,_shortened": "as §4"}, "redroot pigweed [17]": {"tested_on": "redroot pigweed", "experiment": "Test Example 4: herbicidal effect by soil treatment (Table 19, symbol N)", "format": "in vivo, redroot pigweed (Amaranthus retroflexus)", "conditions": "amount of applied herbicide 320 g/ha", "procedure,_shortened": "as §4"}, "persian speedwell [18]": {"tested_on": "persian speedwell", "experiment": "Test Example 4: herbicidal effect by soil treatment (Table 19, symbol R)", "format": "in vivo, Persian speedwell (Veronica persica)", "conditions": "amount of applied herbicide 320 g/ha", "procedure,_shortened": "as §4"}, "lambsquarters [19]": {"tested_on": "lambsquarters", "experiment": "Test Example 5: herbicidal effect by foliage application, plastic box (Table 20, symbol O)", "format": "in vivo, lambsquarters (Chenopodium album)", "conditions": "foliage application, 320 g/ha, evaluated three weeks after application", "procedure,_shortened": "as §1"}, "green foxtail [20]": {"tested_on": "green foxtail", "experiment": "Test Example 4: herbicidal effect by soil treatment (Table 19, symbol G)", "format": "in vivo, green foxtail (Setaria viridis)", "conditions": "amount of applied herbicide 320 g/ha", "procedure,_shortened": "as §4"}, "wild oat [21]": {"tested_on": "wild oat", "experiment": "Test Example 4: herbicidal effect by soil treatment (Table 19, symbol I)", "format": "in vivo, wild oat (Avena fatua)", "conditions": "amount of applied herbicide 320 g/ha", "procedure,_shortened": "as §4"}, "windgrass [22]": {"tested_on": "windgrass", "experiment": "Test Example 5: herbicidal effect by foliage application, plastic box (Table 20, symbol L)", "format": "in vivo, windgrass (Apera spica-venti)", "conditions": "foliage application, 320 g/ha, evaluated three weeks after application", "procedure,_shortened": "as §1"}, "windgrass [23]": {"tested_on": "windgrass", "experiment": "Test Example 4: herbicidal effect by soil treatment (Table 19, symbol L)", "format": "in vivo, windgrass (Apera spica-venti)", "conditions": "amount of applied herbicide 320 g/ha", "procedure,_shortened": "as §4"}}}
{"smiles": "CCCC(=O)Oc1c(C)nn(C)c(=O)c1-c1c(-c2cccc(OC(F)(F)F)c2)sc2ccc(F)cc12", "note": "[2-237]", "values": [{"measurement": "herbicidal effect on M: velvetleaf (criteria 0-5)", "setting": "velvetleaf [1]", "result": "3 (Herbicidal rate of 40% or more and less than 70%)"}, {"measurement": "herbicidal effect on H: barnyard grass (criteria 0-5)", "setting": "barnyard grass [2]", "result": "0 (Herbicidal rate of 5% or less (almost no effect))"}, {"measurement": "herbicidal effect on D: Chinese sprangletop", "setting": "Chinese sprangletop", "result": "4 (Herbicidal rate of 70% or more and less than 90%)"}, {"measurement": "Herbicidal effect on B: Japanese bulrush (grade 0-5)", "setting": "Japanese bulrush", "result": "0 (Herbicidal rate of 5% or less (almost no effect))"}, {"measurement": "herbicidal effect on F: southern crabgrass", "setting": "southern crabgrass [3]", "result": "0 (Herbicidal rate of 5% or less (almost no effect))"}, {"measurement": "herbicidal effect on J: blackgrass (criteria 0-5)", "setting": "blackgrass", "result": "0 (Herbicidal rate of 5% or less (almost no effect))"}, {"measurement": "herbicidal effect on P: chickweed", "setting": "chickweed [4]", "result": "5 (Herbicidal rate of 90% or more (almost completely withered))"}, {"measurement": "herbicidal effect on F: southern crabgrass (criteria 0-5)", "setting": "southern crabgrass [5]", "result": "0 (Herbicidal rate of 5% or less (almost no effect))"}, {"measurement": "herbicidal effect on G: green foxtail (criteria 0-5)", "setting": "green foxtail [6]", "result": "0 (Herbicidal rate of 5% or less (almost no effect))"}, {"measurement": "Herbicidal effect on C: oval-leafed pondweed (grade 0-5)", "setting": "oval-leafed pondweed", "result": "0 (Herbicidal rate of 5% or less (almost no effect))"}, {"measurement": "herbicidal effect on K: Italian ryegrass", "setting": "Italian ryegrass [7]", "result": "0 (Herbicidal rate of 5% or less (almost no effect))"}, {"measurement": "Herbicidal effect on A: late watergrass (grade 0-5)", "setting": "late watergrass", "result": "3 (Herbicidal rate of 40% or more and less than 70%)"}, {"measurement": "herbicidal effect on E: rice flat sedge", "setting": "rice flat sedge", "result": "5 (Herbicidal rate of 90% or more (almost completely withered))"}, {"measurement": "herbicidal effect on H: barnyard grass", "setting": "barnyard grass [8]", "result": "3 (Herbicidal rate of 40% or more and less than 70%)"}, {"measurement": "herbicidal effect on I: wild oat (criteria 0-5)", "setting": "wild oat [9]", "result": "0 (Herbicidal rate of 5% or less (almost no effect))"}, {"measurement": "herbicidal effect on H: barnyard grass", "setting": "barnyard grass [10]", "result": "0 (Herbicidal rate of 5% or less (almost no effect))"}, {"measurement": "herbicidal effect on P: chickweed (criteria 0-5)", "setting": "chickweed [11]", "result": "5 (Herbicidal rate of 90% or more (almost completely withered))"}, {"measurement": "herbicidal effect on O: lambsquarters", "setting": "lambsquarters [12]", "result": "0 (Herbicidal rate of 5% or less (almost no effect))"}, {"measurement": "herbicidal effect on K: Italian ryegrass (criteria 0-5)", "setting": "Italian ryegrass [13]", "result": "0 (Herbicidal rate of 5% or less (almost no effect))"}, {"measurement": "herbicidal effect on N: redroot pigweed (criteria 0-5)", "setting": "redroot pigweed [14]", "result": "5 (Herbicidal rate of 90% or more (almost completely withered))"}, {"measurement": "herbicidal effect on R: persian speedwell (criteria 0-5)", "setting": "persian speedwell [15]", "result": "3 (Herbicidal rate of 40% or more and less than 70%)"}, {"measurement": "herbicidal effect on M: velvetleaf", "setting": "velvetleaf [16]", "result": "0 (Herbicidal rate of 5% or less (almost no effect))"}, {"measurement": "herbicidal effect on N: redroot pigweed", "setting": "redroot pigweed [17]", "result": "0 (Herbicidal rate of 5% or less (almost no effect))"}, {"measurement": "herbicidal effect on R: persian speedwell", "setting": "persian speedwell [18]", "result": "0 (Herbicidal rate of 5% or less (almost no effect))"}, {"measurement": "herbicidal effect on O: lambsquarters (criteria 0-5)", "setting": "lambsquarters [19]", "result": "2 (Herbicidal rate of 20% or more and less than 40%)"}, {"measurement": "herbicidal effect on G: green foxtail", "setting": "green foxtail [20]", "result": "0 (Herbicidal rate of 5% or less (almost no effect))"}, {"measurement": "herbicidal effect on I: wild oat", "setting": "wild oat [21]", "result": "0 (Herbicidal rate of 5% or less (almost no effect))"}, {"measurement": "herbicidal effect on L: windgrass (criteria 0-5)", "setting": "windgrass [22]", "result": "0 (Herbicidal rate of 5% or less (almost no effect))"}, {"measurement": "herbicidal effect on L: windgrass", "setting": "windgrass [23]", "result": "0 (Herbicidal rate of 5% or less (almost no effect))"}]}
